From patent US7094786B2, “Method of treating nausea, vomiting, retching or any combination thereof” (Dynogen Pharmaceuticals, Inc., priority 2003, dated 2006)

What was measured:
[1] = test system: α1, α2, β1, β2, 5-HT1, 5-HT1A, 5-HT1c, 5-HT2, 5-HT4, 5-HT6, 5-HT7, D1, D2, Muscarinic, M1, M2, M3, Nicotonic, H1, H2, GABA-A, GABA-B, BZP, Opiate, CRF and …; settings: all receptors tested other than 5-HT3; read-out: IC50, radioligand binding to additional receptors; cited from earlier work
[2] = test system: Monoamine Oxidase-A (MAO-A); settings: cited from earlier work
[3] = target: T1, 5-HT3 receptor (Mus musculus, UniProt P23979); settings: radioligand binding; read-out: Ki, affinity for the 5-HT3 receptor; cited from earlier work
T1 construct: host or cells: N1E-115 mouse neuroblastoma cells
T1 sequence (P23979 24-489): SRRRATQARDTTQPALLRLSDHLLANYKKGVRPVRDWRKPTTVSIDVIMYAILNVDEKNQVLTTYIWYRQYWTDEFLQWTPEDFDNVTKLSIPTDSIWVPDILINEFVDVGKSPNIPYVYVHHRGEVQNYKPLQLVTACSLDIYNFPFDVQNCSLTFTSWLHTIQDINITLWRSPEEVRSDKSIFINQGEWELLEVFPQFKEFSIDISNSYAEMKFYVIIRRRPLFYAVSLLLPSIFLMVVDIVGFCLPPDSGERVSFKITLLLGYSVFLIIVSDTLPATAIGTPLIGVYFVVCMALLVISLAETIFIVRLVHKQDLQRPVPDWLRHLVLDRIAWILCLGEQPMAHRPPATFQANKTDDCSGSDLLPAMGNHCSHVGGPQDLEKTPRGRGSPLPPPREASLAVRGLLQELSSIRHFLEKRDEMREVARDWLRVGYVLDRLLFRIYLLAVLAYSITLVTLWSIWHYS

[4] = test system: muscarinic receptors; settings: cited from earlier work
[5] = test system: cisplatin-induced retching and vomiting; experiment: Cisplatin-induced emesis in the ferret; assay type: in vivo, ferret (Mustela putariofuro); settings: for Latency: first emetic event; for Effect on latency of the first emetic response (in words): across doses tested i.p.; for Effect on number of cisplatin-induced emetic events (in words): across doses tested i.p. (ondansetron 5, 10 mg/kg; MCI-225 1, 10, 30 mg/kg); for Retches (360 min) / Vomits (360 min) / Total Events: male ferrets; for Total Events: 360 min
Description: The ability of MCI-225 to reduce retching and vomiting in an accepted model of cytotoxin-induced emesis in the ferret was assessed. Specifically, the experiments described herein investigated the effect of MCI-225 on retching and vomiting induced by cisplatin. Ondansetron was used as a positive control in the model, in view of its known antiemetic activity. Adult male ferrets (Mustela putariofuro) weighing 1200–1880 g were purchased from Triple F Farms (Sayre, Pa.) and housed in individual cages at standardized conditions (12:12 h light/dark cycle and 21–23° C.). Prior to the experiments, the ferrets were allowed a 7–10 day acclimatization period to the animal facility. The ferrets were fed a carnivore diet with free access to food and water throughout the course of the study. The use of the ferret model of emesis and the drug treatment were preapproved in accordance with facility standards. A cisplatin solution was prepared by adding preheated (70° C.) saline to cisplatin powder (Sigma-Aldrich Co.) and stirring or sonicating at 40° C. until dissolved. Following administration of the cisplatin and either MCI-225, ondansetron or vehicle alone, the occurrence of retching and vomiting was monitored for a period of 6 hours. Retching was defined as the number of forceful rhythmic contractions of the abdomen occurring with the animal in characteristic posture, but not resulting in the expulsion of upper gastrointestinal tract contents (Watson et al., British Journal of Pharmacology, 115(1): 84–94 (1994)). Vomiting was defined as the forceful oral expulsion of upper gastrointestinal contents. The latency of the retching or vomiting response and the number of episodes were recorded for each animal and summarized for each experimental group (Wright et al., Infect. Immun., 68(4): 2386–9 (2000)). Following one hour of acclimation to the observation cage, ferrets received an intraperitoneal (i.p.) injection of cisplatin (5 mg/kg in 5 mL) followed in about 2 minutes by i.p. injection of a single dose of MCI-225 or ondansetron (Rudd and Naylor, Eur. J. Pharmacol., 322: 79–82 (1997)). Dose-response effects of MCI-225 dosed at 1, 10 and 30 mg/kg i.p. in a 0.5 ml/kg solution or ondansetron dosed at 5 and 10 mg/kg i.p. in a 0.5 mL/kg solution were studied. Each animal received a single-dose drug treatment. In addition, three animals received an initial dose (30 mg/kg i.p.) and a second MCI-225 injection (30 mg/kg i.p.) 180 minutes following the initial dose. Control animals were treated with cisplatin followed by vehicle alone (propanediol dosed in a 0.5 mL/kg solution). All groups were randomized.

[6] = test system: Monoamine Oxidase-B (MAO-B); settings: cited from earlier work
[7] = 10 mg/kg i.p. single dose after cisplatin 5 mg/kg i.p.
[8] = 5 mg/kg i.p. single dose after cisplatin 5 mg/kg i.p.

Cc1cc2c(-c3ccccc3F)nc(N3CCNCC3)nc2s1 [MCI-225, 4-(2-fluorophenyl)-6-methyl-2-(1-piperazinyl)thieno[2,3-d]pyrimidine]
IC50 [1]: > 1000 nM | Inhibition of MAO-A activity [2]: did not inhibit | Ki [3]: < 100 nM | Anticholinergic activity [4]: substantially no anticholinergic activity | Latency ([5]; 1 mg/kg i.p. single dose after cisplatin 5 mg/kg i.p.): 186 ± 35 min | Latency [5, 7]: 192 ± 57 min | Latency ([5]; 30 mg/kg b.i.d i.p. (two doses, 180-min interval) after cisplatin 5 mg/kg i.p.): 360 ± 0 min | Latency ([5]; 30 mg/kg i.p. single dose after cisplatin 5 mg/kg i.p.): 287 ± 38 min | Effect on latency of the first emetic response (in words) [5]: increase in the latency of the response | Effect on number of cisplatin-induced emetic events (in words) [5]: dose-dependent reduction in the retches and vomits | Overall antiemetic efficacy (conclusion) ([5]; similar dose range as ondansetron): effective at reducing retching and vomiting | Emetic response (in words) ([5]; two doses of 30 mg/kg, b.i.d at a 180-min interval): eliminated | Inhibition of MAO-B activity [6]: did not inhibit

Cc1nccn1CC1CCc2c(c3ccccc3n2C)C1=O (centres unmarked) [Ondansetron, ondansetron]
Latency [5, 8]: 288 ± 4 min | Retches (360 min) [5, 8]: 11.2 ± 7.0 | Vomits (360 min) [5, 8]: 0.3 ± 0.2 | Total Events [5, 8]: 11.5 ± 7.2 | Latency [5, 7]: 313 ± 32 min | Retches (360 min) [5, 7]: 2.4 ± 1.6 | Vomits (360 min) [5, 7]: 0.0 ± 0.0 | Total Events [5, 7]: 2.4 ± 1.6 | Effect on latency of the first emetic response (in words) [5]: increase in the latency of the first emetic response | Effect on number of cisplatin-induced emetic events (in words) [5]: dose-dependently reduced the number of emetic events
